Reference: patent US7795261B2, “Substituted 1-piperidin-4-yl-4-pyrrolidin-3-yl-piperazine derivatives and their use as neurokinin antagonists” (Janssen Pharmaceutica NV, priority 2002, dated 2010)

Columns and labels:
Type in all cases: cell-based
NK1 = NK1 (Homo sapiens, UniProt P25103); assay: Signal transduction (ST), intracellular Ca++ (FLIPR), NK1 antagonistic activity; settings: read-out: pIC50 NK1 (converted)
In short: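 Confluent cells loaded with 2 μM Fluo3 (1 h, 37 °C, probenecid), preincubated 20 min at RT with antagonist concentration range, then agonist added. Peak Ca++ transient read by FLIPR in Krebs buffer pH 7.4; IC50 by non-linear regression.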

NK3 = target: T1, NK3 (Homo sapiens, UniProt P29371); assay: Signal transduction (ST), intracellular Ca++ (FLIPR), NK3; settings: read-out: pIC50 NK3 (converted)
T1 sequence (P29371 1-465): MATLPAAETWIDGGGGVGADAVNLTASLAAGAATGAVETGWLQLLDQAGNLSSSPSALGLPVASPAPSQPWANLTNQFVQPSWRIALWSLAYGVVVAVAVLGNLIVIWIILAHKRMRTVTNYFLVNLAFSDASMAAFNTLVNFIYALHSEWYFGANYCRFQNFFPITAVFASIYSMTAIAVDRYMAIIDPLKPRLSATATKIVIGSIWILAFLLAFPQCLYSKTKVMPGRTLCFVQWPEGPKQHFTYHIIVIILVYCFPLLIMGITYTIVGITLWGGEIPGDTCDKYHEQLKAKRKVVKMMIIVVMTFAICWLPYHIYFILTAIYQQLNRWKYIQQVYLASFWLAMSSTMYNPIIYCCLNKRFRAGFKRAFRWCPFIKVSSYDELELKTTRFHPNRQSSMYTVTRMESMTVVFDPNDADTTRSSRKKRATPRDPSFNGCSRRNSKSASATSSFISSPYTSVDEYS

NK2 = target: T2, NK2 (Homo sapiens, UniProt P21452); assay: Signal transduction (ST), intracellular Ca++ (FLIPR), NK2; settings: read-out: pIC50 NK2 (converted)
T2 sequence (P21452 1-398): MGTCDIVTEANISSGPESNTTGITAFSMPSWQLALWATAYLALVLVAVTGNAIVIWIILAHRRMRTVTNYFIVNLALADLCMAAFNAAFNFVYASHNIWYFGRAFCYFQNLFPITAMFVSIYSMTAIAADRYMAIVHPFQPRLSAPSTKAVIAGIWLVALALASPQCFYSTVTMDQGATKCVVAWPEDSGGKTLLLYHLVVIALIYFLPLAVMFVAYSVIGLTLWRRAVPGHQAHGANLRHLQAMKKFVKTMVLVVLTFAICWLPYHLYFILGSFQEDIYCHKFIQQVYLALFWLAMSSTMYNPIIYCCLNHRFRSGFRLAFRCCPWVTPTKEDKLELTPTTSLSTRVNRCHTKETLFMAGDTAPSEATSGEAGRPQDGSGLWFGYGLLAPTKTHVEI
Procedure: [The procedure below names another target; the source lists this target under the same test.] This test evaluates in vitro functional NK1 antagonistic activity. For the measurements of intracellular Ca^++ concentrations the cells were grown on 96-well (black wall/transparent bottom) plates from Costar for 2 days until they reached confluence. The cells were loaded with 2 μM Fluo3 in DMEM containing 0.1% BSA and 2.5 mM probenecid for 1 h at 37° C. They were washed 3× with a Krebs buffer (140 mM NaCl, 1 mM MgCl2×6H2O, 5 mM KCl, 10 mM glucose, 5 mM HEPES; 1.25 mM CaCl2; pH 7.4) containing 2.5 mM probenecid and 0.1% BSA (Ca^++-buffer). The cells were preincubated with a concentration range of antagonists for 20 min at RT and Ca^++-signals after addition of the agonists were measured in a Fluorescence Image Plate Reader (FLIPR from Molecular Devices, Crawley, England). The peak of the Ca^++-transient was considered as the relevant signal and the mean values of corresponding wells were analysed as described below.
The sigmoidal dose response curves were analysed by computerised curve-fitting, using the GraphPad Program. […] For antagonist responses the IC50-value was calculated using non-linear regression.
The last columns indicates—without being limited therefore—for which the compounds might be most suitable. Of course, since for some neurokinin receptors no data was determined, it is obvious that these compounds might be attributed to another suitable use.

Sequence of NK1 (P25103 whole entry): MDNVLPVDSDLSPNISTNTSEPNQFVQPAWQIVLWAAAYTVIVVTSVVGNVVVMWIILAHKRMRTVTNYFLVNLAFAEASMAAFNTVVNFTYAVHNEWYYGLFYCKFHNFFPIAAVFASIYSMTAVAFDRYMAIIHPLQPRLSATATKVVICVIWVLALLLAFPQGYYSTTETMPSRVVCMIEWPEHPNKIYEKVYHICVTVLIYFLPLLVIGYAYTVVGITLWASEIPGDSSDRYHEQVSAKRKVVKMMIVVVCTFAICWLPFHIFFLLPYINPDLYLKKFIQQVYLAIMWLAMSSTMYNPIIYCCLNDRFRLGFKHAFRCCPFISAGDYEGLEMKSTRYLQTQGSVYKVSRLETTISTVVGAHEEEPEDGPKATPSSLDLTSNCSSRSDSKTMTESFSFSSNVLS

| Compound | IC50 (NK1) | IC50 (NK3) | IC50 (NK2) |
| --- | --- | --- | --- |
| O=C(c1cc(C(F)(F)F)cc(C(F)(F)F)c1)N1CC[C@H](N2CCN([C@@H]3CCN(S(=O)(=O)c4cccs4)C3)CC2)C[C@H]1Cc1ccc(Cl)c(Cl)c1 [Compound 268] | 20 nM | 1000 nM | 251 nM |
| O=C(C1CCCCN1C(=O)C1CC1)N1CCC(N2CCN([C@H]3CCN(C(=O)c4cc(C(F)(F)F)cc(C(F)(F)F)c4)[C@H](Cc4ccccc4)C3)CC2)C1 (stereo partly drawn) [Compound 296] | 6.31 nM | 794 nM | 1580 nM |
| COc1ccc(S(=O)(=O)N2CCC(N3CCN([C@H]4CCN(C(=O)c5cc(C(F)(F)F)cc(C(F)(F)F)c5)[C@H](Cc5ccccc5)C4)CC3)C2)cc1OC (stereo partly drawn) [Compound 378] | 12.6 nM | 2000 nM | 1580 nM |
| O=C(c1cnccn1)N1CCC(N2CCN(C3CCN(C(=O)c4cc(C(F)(F)F)cc(C(F)(F)F)c4)C(Cc4ccc(F)c(F)c4)C3)CC2)C1 (single isomer, unassigned) [Compound 259] | 12.6 nM | 501 nM | 2000 nM |
| Cc1nc(S(=O)(=O)N2CCC(N3CCN([C@H]4CCN(C(=O)c5cc(C(F)(F)F)cc(C(F)(F)F)c5)[C@H](Cc5ccccc5)C4)CC3)C2)cn1C (stereo partly drawn) [Compound 78] | 31.6 nM | 251 nM | 398 nM |
| O=C(C1CCCCC1)N1CC[C@@H](N2CCN([C@H]3CCN(C(=O)c4cc(C(F)(F)F)cc(C(F)(F)F)c4)[C@H](Cc4ccc(Cl)c(Cl)c4)C3)CC2)C1 [Compound 299] | 7.94 nM | 794 nM | 2510 nM |
| CC(C)(C)C(=O)N1CC[C@@H](N2CCN([C@H]3CCN(C(=O)c4cc(C(F)(F)F)cc(C(F)(F)F)c4)[C@H](Cc4ccc(Cl)c(Cl)c4)C3)CC2)C1 [Compound 289] | 7.94 nM | 794 nM | 2000 nM |
| O=C(c1cccs1)N1CCC(N2CCN(C3CCN(C(=O)c4cc(C(F)(F)F)cc(C(F)(F)F)c4)C(Cc4ccc(F)c(F)c4)C3)CC2)C1 (single isomer, unassigned) [Compound 232] | 6.31 nM | 126 nM | 3160 nM |
| O=C(c1cccs1)N1CCC(N2CCN(C3CCN(C(=O)c4cc(C(F)(F)F)cc(C(F)(F)F)c4)C(Cc4ccc(F)c(F)c4)C3)CC2)C1 (single isomer, unassigned) [Compound 254] | 10 nM | 501 nM | 251 nM |
| O=C(c1ccoc1)N1CCC(N2CCN(C3CCN(C(=O)c4cc(C(F)(F)F)cc(C(F)(F)F)c4)C(Cc4ccc(F)c(F)c4)C3)CC2)C1 (stereo not drawn) [Compound 226] | 6.31 nM | 501 nM | 1260 nM |
| O=C(C1CCCCC1)N1CC[C@H](N2CCN([C@H]3CCN(C(=O)c4cc(C(F)(F)F)cc(C(F)(F)F)c4)[C@H](Cc4ccc(Cl)c(Cl)c4)C3)CC2)C1 [Compound 314] | 15.8 nM | 501 nM | 1260 nM |
| O=C(c1cccs1)N1CCC(N2CCN(C3CCN(C(=O)c4cc(C(F)(F)F)cc(C(F)(F)F)c4)C(Cc4ccc(Cl)c(Cl)c4)C3)CC2)C1 (stereo not drawn) [Compound 175] | 25.1 nM | 398 nM | 1000 nM |
| O=C(c1ccoc1)N1CCC(N2CCN(C3CCN(C(=O)c4cc(C(F)(F)F)cc(C(F)(F)F)c4)C(Cc4ccc(F)c(F)c4)C3)CC2)C1 (single isomer, unassigned) [Compound 258] | 12.6 nM | 398 nM | 501 nM |
| O=C(c1c(Cl)cccc1Cl)N1CC[C@H](N2CCN([C@H]3CCN(C(=O)c4cc(C(F)(F)F)cc(C(F)(F)F)c4)[C@H](Cc4ccc(Cl)c(Cl)c4)C3)CC2)C1 [Compound 316] | 20 nM | 631 nM | 794 nM |
| O=C(c1cc(C(F)(F)F)cc(C(F)(F)F)c1)N1CCC(N2CCN(C3CCN(S(=O)(=O)c4cc(CCO)cs4)C3)CC2)CC1Cc1ccccc1 (stereo not drawn) [Compound 342] | 5.01 nM | 398 nM | 126 nM |
| O=C(C1CC1)N1CC[C@@H](N2CCN([C@H]3CCN(C(=O)c4cc(C(F)(F)F)cc(C(F)(F)F)c4)[C@H](Cc4ccc(Cl)c(Cl)c4)C3)CC2)C1 [Compound 263] | 6.31 nM | 316 nM | 794 nM |
| CC1(C)OCC(CNC(=NC#N)N2CCC(N3CCN(C4CCN(C(=O)c5cc(C(F)(F)F)cc(C(F)(F)F)c5)C(Cc5ccccc5)C4)CC3)C2)O1 (stereo not drawn) [Compound 370] | 20 nM | 7940 nM | 6310 nM |
| CC(C)(C)C(=O)N1CCC(N2CCN([C@@H]3CCN(C(=O)c4cc(C(F)(F)F)cc(C(F)(F)F)c4)[C@H](Cc4ccc(F)c(F)c4)C3)CC2)C1 (single isomer, unassigned) [Compound 365] | 7.94 nM | 501 nM | 2510 nM |
| O=C(C1CCOC1)N1CCC(N2CCN(C3CCN(C(=O)c4cc(C(F)(F)F)cc(C(F)(F)F)c4)C(Cc4ccc(F)c(F)c4)C3)CC2)C1 (single isomer, unassigned) [Compound 285] | 6.31 nM | 631 nM | 3160 nM |

The next lines start with the values.

| IC50 (NK1) | IC50 (NK3) | IC50 (NK2) | Compound |
| --- | --- | --- | --- |
| 39.8 nM | 126 nM | 3160 nM | O=C(c1c[nH]c2ccccc12)N1CCC(N2CCN([C@H]3CCN(C(=O)c4cc(C(F)(F)F)cc(C(F)(F)F)c4)[C@H](Cc4ccccc4)C3)CC2)C1 (stereo partly drawn) [Compound 56] |
| 12.6 nM | 398 nM | 5010 nM | O=C(c1cc(F)ccc1F)N1CCC(N2CCN([C@H]3CCN(C(=O)c4cc(C(F)(F)F)cc(C(F)(F)F)c4)[C@H](Cc4ccccc4)C3)CC2)C1 (stereo partly drawn) [Compound 21] |
| 12.6 nM | 5010 nM | 5010 nM | COc1ccc(C(=O)N2CCC(N3CCN([C@H]4CCN(C(=O)c5cc(C(F)(F)F)cc(C(F)(F)F)c5)[C@H](Cc5ccccc5)C4)CC3)C2)s1 (stereo partly drawn) [Compound 350] |
| 7.94 nM | 316 nM | 5010 nM | COc1ccccc1C(=O)N1CCC(N2CCN([C@H]3CCN(C(=O)c4cc(C(F)(F)F)cc(C(F)(F)F)c4)[C@H](Cc4ccccc4)C3)CC2)C1 (stereo partly drawn) [Compound 14] |
| 15.8 nM | 501 nM | 3980 nM | O=C(c1ccoc1)N1CCC(N2CCN(C3CCN(C(=O)c4cc(C(F)(F)F)cc(C(F)(F)F)c4)C(Cc4ccccc4)C3)CC2)C1 (single isomer, unassigned) [Compound 33] |
| 15.8 nM | 398 nM | 1260 nM | O=C(c1ccccc1Cl)N1CCC(N2CCN(C3CCN(C(=O)c4cc(C(F)(F)F)cc(C(F)(F)F)c4)C(Cc4ccc(F)c(F)c4)C3)CC2)C1 (stereo not drawn) [Compound 255] |
| 10 nM | 5010 nM | 2510 nM | O=C(C(O)c1ccccc1)N1CCC(N2CCN([C@H]3CCN(C(=O)c4cc(C(F)(F)F)cc(C(F)(F)F)c4)[C@H](Cc4ccccc4)C3)CC2)C1 (stereo partly drawn) [Compound 275] |
| 7.94 nM | 631 nM | 2000 nM | CC(C)(C)C(=O)N1CCC(N2CCN(C3CCN(C(=O)c4cc(C(F)(F)F)cc(C(F)(F)F)c4)C(Cc4ccccc4)C3)CC2)C1 (stereo not drawn) [Compound 167] |
| 7.94 nM | 126 nM | 2510 nM | O=C(c1ccsc1)N1CCC(N2CCN(C3CCN(C(=O)c4cc(C(F)(F)F)cc(C(F)(F)F)c4)C(Cc4ccccc4)C3)CC2)C1 (single isomer, unassigned) [Compound 40] |
| 6.31 nM | 158 nM | 1260 nM | O=C(c1ccsc1)N1CCC(N2CCN(C3CCN(C(=O)c4cc(C(F)(F)F)cc(C(F)(F)F)c4)C(Cc4ccc(F)c(F)c4)C3)CC2)C1 (single isomer, unassigned) [Compound 238] |
| 31.6 nM | 1000 nM | 3980 nM | O=C(c1cnccn1)N1CCC(N2CCN([C@H]3CCN(C(=O)c4cc(C(F)(F)F)cc(C(F)(F)F)c4)[C@H](Cc4ccccc4)C3)CC2)C1 (stereo partly drawn) [Compound 30] |
